Measurements from the CheMixHub viscosity set.

Experiment: xn = mol fraction of the nth substance listed

CC(C)CC(=O)CC(C)C + CCCC(C)O
viscosity [mPa·s], 100 kPa
Conditions | x1 = 0.0794 | x1 = 0.1627 | x1 = 0.2381 | x1 = 0.3487 | x1 = 0.4381 | x1 = 0.5619 | x1 = 0.6565 | x1 = 0.7364 | x1 = 0.8517 | x1 = 0.9341
293.15 K | 3.12 | 2.32 | 1.78 | 1.18 | 0.84 | 0.58 | 0.51 | 0.55 | 0.71 | 0.85
298.15 K | 2.63 | 1.94 | 1.43 | 0.89 | 0.62 | 0.43 | 0.4 | 0.47 | 0.66 | 0.81
303.15 K | 2.24 | 1.68 | 1.21 | 0.76 | 0.52 | 0.34 | 0.32 | 0.41 | 0.6 | 0.76
308.15 K | 1.89 | 1.41 | 1.05 | 0.66 | 0.44 | 0.27 | 0.24 | 0.33 | 0.52 | 0.7
313.15 K | 1.55 | 1.17 | 0.87 | 0.55 | 0.37 | 0.22 | 0.19 | 0.28 | 0.46 | 0.64
318.15 K | 1.28 | 0.98 | 0.75 | 0.49 | 0.32 | 0.18 | 0.16 | 0.24 | 0.42 | 0.59
323.15 K | 1.09 | 0.84 | 0.65 | 0.42 | 0.26 | 0.14 | – | 0.2 | 0.38 | 0.53

C=C(C)[C@@H]1CC=C(C)CC1 + CCCCCC
298.15 K, 101.33 kPa
Conditions | viscosity [mPa·s]
x2 = 0.0279 | 0.825
x2 = 0.0568 | 0.806
x2 = 0.113 | 0.759
x2 = 0.2079 | 0.686
x2 = 0.2991 | 0.622
x2 = 0.4219 | 0.549
x2 = 0.5543 | 0.477
x2 = 0.6701 | 0.421
x2 = 0.7542 | 0.386
x2 = 0.8966 | 0.334
x2 = 0.9273 | 0.326
x2 = 0.972 | 0.305

CC(C)CC(C)(C)C + CCCCCC
298.15 K, 101 kPa
Conditions | viscosity [mPa·s]
x1 = 0.05688 | 0.3093
x1 = 0.1612 | 0.3278
x1 = 0.2742 | 0.3441
x1 = 0.3413 | 0.3538
x1 = 0.4585 | 0.373
x1 = 0.5556 | 0.3897
x1 = 0.6116 | 0.3995
x1 = 0.7348 | 0.4226
x1 = 0.7874 | 0.4329
x1 = 0.852 | 0.4445
x1 = 0.9128 | 0.4582
x1 = 0.9559 | 0.4674
x2 = 0.03385 | 0.484
